“Also recorded” adds a separate entry of the source. Where two headings read alike, the source gives them in different places.
What was measured:
HT-1080 cells = experiment: Rescue activity of Fer-1 analogs: inhibition of erastin-, IKE- or RSL3-induced death (Alamar Blue viability); type: cell-based; settings: Homo sapiens
Method: HT-1080 cells are cultured in DMEM containing 10% fetal bovine serum, 1% supplemented non-essential amino acids and 1% pen/strep mixture (Gibco) and maintained in a humidified environment at 37° C. with 5% CO2 in a tissue culture incubator. 1,000 HT-1080 cells are seeded per well in duplicate 384-well plates (Corning) using a BioMek FX liquid handling robot (Beckman Coulter). The next day, the medium is replaced with 36 μL of medium containing 10 μM erastin with 4 μL of medium containing a dilution series (previously prepared) of DMSO, Fer-1 (positive control) or Fer-1 analogs. […] Cells are incubated a further 6 hours and then the Alamar Blue fluorescence intensity recorded using a Victor 3 platereader (PerkinElmer)(ex/em 530/590). All experiments are performed at least twice and the background (no cells)-subtracted Alamar Blue values for each combination are averaged between replicates. The same procedure was repeated by replacing erastin (10 μM) with IKE (3 μM) or RSL3 (0.2 μM).

[1] = system: N27 rat dopaminergic cells; experiment: Suppression of ferroptosis induced by RSL3 in N27 cells (CellTiter-Glo viability); type: cell-based; settings: for IC50: Rattus norvegicus, read-out: IC50; for ability to suppress ferroptosis, in words: RSL3 20 nM, 24 hours of incubation
[2] = HT-1080, ^a 50% viability, HT-1080 cells treated with 10 μM erastin
[3] = HT-1080, ^b 50% viability, HT-1080 treated with 3 μM IKE
[4] = HT-1080, ^c 50% viability, HT-1080 treated with 0.2 μM RSL3
[5] = N27, 24 h, Table 13, 20 nM RSL3, treated for 24 hours^d
[6] = N27, 48 h, Table 13, 20 nM RSL3, treated for 48 hours^e
[7] = N27, 24 h, Table 3, ^d 24 hr treatment, 1,000 cells/well seeded

Compound | EC50 (HT-1080 cells; [2]) [nM] | EC50 (HT-1080 cells; [3]) [nM] | EC50 (HT-1080 cells; [4]) [nM] | IC50 [1, 5] [nM] | also measured
CC(C)(C)OC(=O)c1cnc(NC2CCCCC2)c(NC2CCCCC2)c1 [CFI-101] | 354 | 171 | 163 | – | –
C=C/C(=C\C(F)=C\COC(C)(C)C)NC12CC3CC(CC(C3)C1)C2 [CFI-A78] | – | 26 | 18 | – | –
Cc1noc(-c2ccc(NC3CCCCC3)c(NC3CCCC3)c2)n1 [TH-1-45-1, N1-cyclohexyl-N2-cyclopentyl-4-(3-methyl-1,2,4-oxadiazol-5-yl)benzene-1,2-diamine] | 33.8 | 17.3 | 5.1 | – | –
Cc1noc(-c2ccc(NC3CCCCC3)c(NC(C)C)c2)n1 [TH-1-45-2, N1-cyclohexyl-N2-isopropyl-4-(3-methyl-1,2,4-oxadiazol-5-yl)benzene-1,2-diamine] | 22.3 | 16.2 | 4.2 | – | –
CCC(CC)Nc1cc(-c2nc(C)no2)ccc1NC1CCCCC1 [TH-1-45-3, N1-cyclohexyl-4-(3-methyl-1,2,4-oxadiazol-5-yl)-N2-(pentan-3-yl)benzene-1,2-diamine] | 37.8 | 26.9 | 6.6 | – | –
Cc1noc(-c2ccc(NC3CCCCC3)c(NCc3ccccc3)c2)n1 [TH-1-53-2] | 44.5 | 40.2 | 9.4 | – | –
Cc1noc(-c2ccc(NC3CCCCC3)c(NCc3ccncc3)c2)n1 [TH-1-53-3, N1-cyclohexyl-4-(3-methyl-1,2,4-oxadiazol-5-yl)-N2-(pyridin-4-ylmethyl)benzene-1,2-diamine] | 63.8 | 63 | 31.5 | – | –
COc1ccc(N)c(NC(C)C)n1 [TH-3-83-2, N2-isopropyl-6-methoxypyridine-2,3-diamine] | – | – | – | 19.5 | IC50 [1, 6]: 33.6 nM
Cc1noc(-c2cc(N(C(C)C)C(C)C)cnc2NC2CCCCC2)n1 [TH-3-86-R2, N^2-cyclohexyl-N^5,N^5-diisopropyl-3-(3-methyl-1,2,4-oxadiazol-5-yl)pyridine-2,5-diamine] | – | – | – | – | IC50 [1, 6]: 1040 nM; IC50 ([1]; N27, text, 20 nM RSL3): 1000 nM
COc1ccc(NC2CCCCC2)c(NC(C)C)n1 [TH-3-95-1-r1, N3-cyclohexyl-N2-isopropyl-6-methoxypyridine-2,3-diamine] | – | – | – | 30.5 | IC50 [1, 6]: 22.4 nM
COc1ccc(NC(C)C)c(NC(C)C)n1 [TH-3-95-2-R1, N2,N3-diisopropyl-6-methoxypyridine-2,3-diamine] | – | – | – | 35.7 | IC50 [1, 6]: 0.22 nM
Cc1noc(-c2cnc(NC3CCCCC3)c(NC3CCCC3)c2)n1 [TH-4-16-1, N^2-cyclohexyl-N^3-cyclopentyl-5-(3-methyl-1,2,4-oxadiazol-5-yl)pyridine-2,3-diamine] | – | – | – | 5.1 | IC50 [1, 7]: 5.1 nM; IC50 ([1]; N27, 48 h, Table 3, ^e 48 hr treatment, 1,000 cells/well seeded): 8.2 nM; IC50 [1, 6]: 8.2 nM
CCN(CC)c1ncc(-c2nc(C)no2)cc1[N+](=O)[O-] [TH-4-46-2, N,N-diethyl-5-(3-methyl-1,2,4-oxadiazol-5-yl)-3-nitropyridin-2-amine] | – | – | – | – | ability to suppress ferroptosis, in words [1]: unable to suppress ferroptosis
Cc1noc(-c2cnc(NC3CCCCC3)c([N+](=O)[O-])c2)n1 [TH-4-50-2, N-cyclohexyl-5-(3-methyl-1,2,4-oxadiazol-5-yl)-3-nitropyridin-2-amine] | – | – | – | – | ability to suppress ferroptosis, in words [1]: unable to suppress ferroptosis
CCC(CC)Nc1cnc(NC2CCCCC2)c(-c2nc(C)no2)c1 [TH-4-53-1, N^2-cyclohexyl-3-(3-methyl-1,2,4-oxadiazol-5-yl)-N^5-(pentan-3-yl)pyridine-2,5-diamine] | – | – | – | 32.7 | –
Cc1noc(-c2cc(NC3CCCC3)cnc2NC2CCCCC2)n1 [TH-4-53-2, N^2-cyclohexyl-N^5-cyclopentyl-3-(3-methyl-1,2,4-oxadiazol-5-yl)pyridine-2,5-diamine] | – | – | – | 1.8 | potency relative to fer-1, in words ([1]; 20 nM RSL3): more potent than fer-1; also recorded: the most potent of the analogs tested
Cc1noc(-c2cnc(NC3CCCCC3)c(NC3CCC3)c2)n1 [TH-4-55-1, N^3-cyclobutyl-N^2-cyclohexyl-5-(3-methyl-1,2,4-oxadiazol-5-yl)pyridine-2,3-diamine] | – | – | – | 2.2 | potency relative to fer-1, in words ([1]; 20 nM RSL3): more potent than fer-1; IC50 [1, 7]: 2.2 nM
Cc1noc(-c2cnc(NC3CCCC3)c([N+](=O)[O-])c2)n1 [TH-4-58-2, N-cyclopentyl-5-(3-methyl-1,2,4-oxadiazol-5-yl)-3-nitropyridin-2-amine] | – | – | – | – | ability to suppress ferroptosis, in words [1]: unable to suppress ferroptosis
Cc1noc(-c2cnc(NC3CCCC3)c(NC3CCC3)c2)n1 [TH-4-62, N^3-cyclobutyl-N^2-cyclopentyl-5-(3-methyl-1,2,4-oxadiazol-5-yl)pyridine-2,3-diamine] | – | – | – | 6.9 | IC50 [1, 7]: 6.9 nM
Cc1noc(-c2cnc(NC3CCCC3)c(NC3CCCCC3)c2)n1 [TH-4-66, N^3-cyclohexyl-N^2-cyclopentyl-5-(3-methyl-1,2,4-oxadiazol-5-yl)pyridine-2,3-diamine] | – | – | – | 3.1 | potency relative to fer-1, in words ([1]; 20 nM RSL3): more potent than fer-1; IC50 [1, 7]: 3.1 nM
CCC(CC)Nc1cc(-c2nc(C)no2)cnc1NC1CCCC1 [TH-4-68, N^2-cyclopentyl-5-(3-methyl-1,2,4-oxadiazol-5-yl)-N^3-(pentan-3-yl)pyridine-2,3-diamine] | – | – | – | 4 | IC50 [1, 7]: 4 nM
CCOC(=O)c1cnc(NC2CCCCC2)c(N)c1 [YZ1108, ethyl 5-amino-6-(cyclohexylamino)nicotinate] | 315 | 639 | 1040 | – | –
CCOC(=O)c1cnc(NC2CCCCC2)c(NCc2ccccc2)c1 [YZ1109, ethyl 5-(benzylamino)-6-(cyclohexylamino)nicotinate] | 317 | 166 | 115 | – | –
CC(C)(C)OC(=O)c1cnc(NC2CCCCC2)c(N)c1 [YZ1113, tert-butyl 5-amino-6-(cyclohexylamino)nicotinate] | 338 | 312 | 156 | – | –
CC(C)(C)OC(=O)c1cnc(NC23CC4CC(CC(C4)C2)C3)c(N)c1 [YZ1117, tert-butyl 6-(((3s,5s,7s)-adamantan-1-yl)amino)-5-aminonicotinate] | 85 | 68.4 | 39.1 | – | –
CC(C)(C)OC(=O)c1cnc(NC23CC4CC(CC(C4)C2)C3)c(NC2CCCCC2)c1 [YZ1118, tert-butyl 6-(((3s,5s,7s)-adamantan-1-yl)amino)-5-(cyclohexylamino)nicotinate] | – | 40.1 | 37.3 | – | –

— patent publication US20240156790A1, “COMPOUNDS, COMPOSITIONS, AND METHODS FOR MODULATING FERROPTOSIS AND TREATING EXCITOTOXIC DISORDERS” (THE TRUSTEES OF COLUMBIA UNIVERSITY IN THE CITY OF NEW YORK, priority 2018, published 2024)
